From ChEMBL document CHEMBL4507311, “Data for DCP probe A-1155463” (2021)
Activity calls are given as the source filed them. No cut-off for these calls is given here.

Tests used:
[1] = target: Bcl-2-like protein 1 (Homo sapiens, UniProt Q07817); test: Time-resolved fluorescence energy transfer (TR-FRET) with BCL2L1
[2] = tested on: MOLT-4; test: CellTiter-Glo Luminescent Cell Viability Assay (BCL-XL dependent cell line MOLT-4); assay type: functional, cell-based; conditions: Homo sapiens
[3] = target: Prostaglandin G/H synthase 2 (Homo sapiens) (UniProt P35354); test: COX2(h) Eurofins-Cerep enzyme and uptake assay; conditions: Compound concentration 10.0 uM
[4] = target: cGMP-inhibited 3',5'-cyclic phosphodiesterase 3A (Homo sapiens) (UniProt Q14432); test: PDE3A (h) Eurofins-Cerep enzyme and uptake assay; conditions: Compound concentration 10.0 uM
[5] = target: Adenosine receptor A1 (Homo sapiens) (UniProt P30542); test: A1 (h) Eurofins-Cerep binding assay; set-up: ligand concentration 1 nM; conditions: filed as antagonist, Compound concentration 10.0 uM
[6] = target: Alpha-1A adrenergic receptor (Homo sapiens) (UniProt P35348); test: Alpha1A (h) Eurofins-Cerep binding assay; set-up: ligand concentration 0.1 nM; conditions: filed as antagonist, Compound concentration 10.0 uM
[7] = target: Beta-1 adrenergic receptor (Homo sapiens) (UniProt P08588); test: Beta1 (h) Eurofins-Cerep binding assay; set-up: ligand concentration 0.3 nM; conditions: filed as agonist, Compound concentration 10.0 uM
[8] = target: Beta-2 adrenergic receptor (Homo sapiens) (UniProt P07550); test: Beta2 (h) Eurofins-Cerep binding assay; set-up: ligand concentration 0.3 nM; conditions: filed as antagonist, Compound concentration 10.0 uM
[9] = target: Type-2 angiotensin II receptor (Homo sapiens) (UniProt P50052); test: AT2 (h) Eurofins-Cerep binding assay; set-up: ligand concentration 0.01 nM; conditions: filed as agonist, Compound concentration 10.0 uM
[10] = target: GABA-A receptor; alpha-1/beta-2/gamma-2 (Homo sapiens) (UniProt P14867+P47870+P18507); test: GABAA1 (h) (alpha1,beta2,gamma2) Eurofins-Cerep binding assay; assay type: protein-complex assay; set-up: ligand concentration 15 nM; conditions: filed as agonist, Compound concentration 10.0 uM
[11] = target: Glutamate NMDA receptor (Rattus norvegicus) (UniProt P35439+Q00959+Q00960+Q00961+Q62645+Q8VHN2+Q9R1M7); test: NMDA Eurofins-Cerep binding assay; assay type: protein-complex assay; set-up: ligand concentration 5 nM; conditions: filed as antagonist, Compound concentration 10.0 uM
[12] = target: Tumor necrosis factor (Homo sapiens) (UniProt P01375); test: TNF-alpha (h) Eurofins-Cerep binding assay; set-up: ligand concentration 0.1 nM; conditions: filed as agonist, Compound concentration 10.0 uM
[13] = target: Melatonin receptor type 1B (Homo sapiens) (UniProt P49286); test: MT2 (ML1B) (h) Eurofins-Cerep binding assay; set-up: ligand concentration 0.05 nM; conditions: filed as agonist, Compound concentration 10.0 uM
[14] = target: Motilin receptor (Homo sapiens) (UniProt O43193); test: motilin (h Eurofins-Cerep binding assay; set-up: ligand concentration 0.05 nM; conditions: filed as agonist, Compound concentration 10.0 uM
[15] = target: T1, Muscarinic acetylcholine receptor M4 (Homo sapiens) (UniProt P08173); test: M4 (h) Eurofins-Cerep binding assay; set-up: ligand concentration 0.2 nM; conditions: filed as antagonist, Compound concentration 10.0 uM
T1 sequence (whole entry): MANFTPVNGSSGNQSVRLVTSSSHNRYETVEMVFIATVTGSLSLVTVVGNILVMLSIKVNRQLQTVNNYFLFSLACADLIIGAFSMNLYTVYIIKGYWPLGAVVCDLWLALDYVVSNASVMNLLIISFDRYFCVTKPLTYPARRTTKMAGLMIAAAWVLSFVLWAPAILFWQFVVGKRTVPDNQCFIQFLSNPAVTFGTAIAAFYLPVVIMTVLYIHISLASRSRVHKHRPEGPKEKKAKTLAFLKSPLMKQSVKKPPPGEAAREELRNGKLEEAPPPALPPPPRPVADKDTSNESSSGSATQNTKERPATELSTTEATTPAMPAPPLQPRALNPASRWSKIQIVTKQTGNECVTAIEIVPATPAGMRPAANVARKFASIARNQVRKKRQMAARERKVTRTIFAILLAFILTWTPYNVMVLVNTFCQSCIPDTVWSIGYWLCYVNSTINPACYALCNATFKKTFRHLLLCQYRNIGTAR

[16] = target: Substance-P receptor (Homo sapiens) (UniProt P25103); test: NK1 (h) Eurofins-Cerep binding assay; set-up: ligand concentration 0.05 nM; conditions: filed as agonist, Compound concentration 10.0 uM
[17] = target: Substance-K receptor (Homo sapiens) (UniProt P21452); test: NK2 (h) Eurofins-Cerep binding assay; set-up: ligand concentration 0.1 nM; conditions: filed as agonist, Compound concentration 10.0 uM
[18] = target: Neuropeptide Y receptor type 1 (Homo sapiens) (UniProt P25929); test: Y1 (h) Eurofins-Cerep binding assay; set-up: ligand concentration 0.025 nM; conditions: filed as agonist, Compound concentration 10.0 uM
[19] = target: Kappa-type opioid receptor (Homo sapiens) (UniProt P41145); test: kappa (h) (KOP) Eurofins-Cerep binding assay; set-up: ligand concentration 0.5 nM; conditions: filed as agonist, Compound concentration 10.0 uM
[20] = target: Prostaglandin E2 receptor EP2 subtype (Homo sapiens) (UniProt P43116); test: EP2 (h) Eurofins-Cerep binding assay; set-up: ligand concentration 3 nM; conditions: filed as agonist, Compound concentration 10.0 uM
[21] = target: 5-hydroxytryptamine receptor 2A (Homo sapiens) (UniProt P28223); test: 5-HT2A (h) Eurofins-Cerep binding assay; set-up: ligand concentration 0.5 nM; conditions: filed as antagonist, Compound concentration 10.0 uM
[22] = target: T2, 5-hydroxytryptamine receptor 2C (Homo sapiens) (UniProt P28335); test: 5-HT2C (h) Eurofins-Cerep binding assay; set-up: ligand concentration 1 nM; conditions: filed as antagonist, Compound concentration 10.0 uM
T2 sequence (whole entry): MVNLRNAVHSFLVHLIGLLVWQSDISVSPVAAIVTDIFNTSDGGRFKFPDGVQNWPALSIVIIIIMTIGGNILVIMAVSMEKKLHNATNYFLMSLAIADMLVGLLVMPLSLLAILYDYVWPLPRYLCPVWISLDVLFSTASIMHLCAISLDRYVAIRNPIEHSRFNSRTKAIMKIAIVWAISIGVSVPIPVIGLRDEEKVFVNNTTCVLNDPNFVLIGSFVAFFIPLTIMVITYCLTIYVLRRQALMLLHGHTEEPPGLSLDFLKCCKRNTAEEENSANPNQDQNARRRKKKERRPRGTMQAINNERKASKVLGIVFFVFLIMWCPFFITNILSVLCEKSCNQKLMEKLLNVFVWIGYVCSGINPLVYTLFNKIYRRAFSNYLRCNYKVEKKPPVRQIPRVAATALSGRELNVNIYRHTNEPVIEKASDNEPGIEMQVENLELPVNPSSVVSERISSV

[23] = target: 5-hydroxytryptamine receptor 7 (Homo sapiens) (UniProt P34969); test: 5-HT7 (h) Eurofins-Cerep binding assay; set-up: ligand concentration 4 nM; conditions: filed as agonist, Compound concentration 10.0 uM
[24] = target: Glucocorticoid receptor (Homo sapiens) (UniProt P04150); test: GR (h) Eurofins-Cerep binding assay; set-up: ligand concentration 1.5 nM; conditions: filed as agonist, Compound concentration 10.0 uM
[25] = target: Vasoactive intestinal polypeptide receptor 1 (Homo sapiens) (UniProt P32241); test: VPAC1 (VIP1) (h) Eurofins-Cerep binding assay; set-up: ligand concentration 0.04 nM; conditions: filed as agonist, Compound concentration 10.0 uM
[26] = target: Vasopressin V1a receptor (Homo sapiens) (UniProt P37288); test: V1 a (h) Eurofins-Cerep binding assay; set-up: ligand concentration 0.3 nM; conditions: filed as agonist, Compound concentration 10.0 uM
[27] = species on record: Rattus norvegicus; test: SKCa channel Eurofins-Cerep binding assay; set-up: ligand concentration 0.007 nM; conditions: filed as antagonist, Compound concentration 10.0 uM
[28] = target: voltage-gated Na+ channel (site 2) (Rattus norvegicus, UniProt F1LQQ7+O08562+O88420+O88457+P04774+P04775+P08104+P15389+P15390+Q62968); test: Na+ channel (site 2) Eurofins-Cerep binding assay; assay type: protein assay; set-up: incubation time 60 min, incubation temperature 37°C, ligand concentration 10 nM; conditions: rat cerebral cortex, probe [3H]batrachotoxin (10 nM), compound concentration 10 uM, read-out: % Inhibition of Control Specific Binding (Mean n=2)
[29] = target: Sodium-dependent dopamine transporter (Homo sapiens) (UniProt Q01959); test: dopamine transporter (h) Eurofins-Cerep binding assay; set-up: ligand concentration 4 nM; conditions: filed as antagonist, Compound concentration 10.0 uM

Chain of Prostaglandin E2 receptor EP2 subtype (Homo sapiens) (P43116 whole entry): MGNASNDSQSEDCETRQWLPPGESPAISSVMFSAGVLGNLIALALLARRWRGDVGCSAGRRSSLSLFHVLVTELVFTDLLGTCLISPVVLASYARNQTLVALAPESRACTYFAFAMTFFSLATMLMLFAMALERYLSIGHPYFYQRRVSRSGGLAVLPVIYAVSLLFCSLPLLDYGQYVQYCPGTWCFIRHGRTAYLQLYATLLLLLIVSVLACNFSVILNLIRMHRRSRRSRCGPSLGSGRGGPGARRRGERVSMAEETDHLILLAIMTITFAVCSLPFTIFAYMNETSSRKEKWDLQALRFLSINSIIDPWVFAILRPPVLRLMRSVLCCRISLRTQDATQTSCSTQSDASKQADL
Chain of Bcl-2-like protein 1 (Q07817 whole entry): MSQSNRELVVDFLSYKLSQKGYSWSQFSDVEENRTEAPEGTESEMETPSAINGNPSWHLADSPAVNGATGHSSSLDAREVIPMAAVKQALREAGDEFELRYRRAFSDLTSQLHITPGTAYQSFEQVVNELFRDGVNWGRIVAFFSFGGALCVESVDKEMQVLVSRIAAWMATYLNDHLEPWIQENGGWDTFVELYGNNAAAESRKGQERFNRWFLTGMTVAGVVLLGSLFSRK
Chain of Melatonin receptor type 1B (Homo sapiens) (P49286 whole entry): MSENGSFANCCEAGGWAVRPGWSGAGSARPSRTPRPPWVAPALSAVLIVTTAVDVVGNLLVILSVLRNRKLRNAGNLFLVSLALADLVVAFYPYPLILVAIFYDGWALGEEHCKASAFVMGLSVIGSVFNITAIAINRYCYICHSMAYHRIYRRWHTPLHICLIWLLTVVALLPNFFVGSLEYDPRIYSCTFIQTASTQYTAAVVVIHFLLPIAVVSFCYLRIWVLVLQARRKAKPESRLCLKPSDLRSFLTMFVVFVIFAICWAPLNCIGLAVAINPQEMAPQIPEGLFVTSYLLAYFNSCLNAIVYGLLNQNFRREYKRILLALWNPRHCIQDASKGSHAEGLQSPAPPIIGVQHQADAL
Chain of Substance-K receptor (Homo sapiens) (P21452 whole entry): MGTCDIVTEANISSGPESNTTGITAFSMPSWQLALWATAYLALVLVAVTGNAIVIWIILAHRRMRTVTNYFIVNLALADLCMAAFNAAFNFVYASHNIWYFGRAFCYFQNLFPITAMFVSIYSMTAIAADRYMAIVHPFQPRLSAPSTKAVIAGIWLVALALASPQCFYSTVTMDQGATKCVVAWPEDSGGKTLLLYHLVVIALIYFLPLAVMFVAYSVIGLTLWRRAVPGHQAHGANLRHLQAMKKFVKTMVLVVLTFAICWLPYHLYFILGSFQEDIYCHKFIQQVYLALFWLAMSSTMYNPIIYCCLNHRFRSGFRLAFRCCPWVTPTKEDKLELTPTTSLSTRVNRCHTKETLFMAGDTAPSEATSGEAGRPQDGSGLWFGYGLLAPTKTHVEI
Chain of Vasopressin V1a receptor (Homo sapiens) (P37288 whole entry, looked up): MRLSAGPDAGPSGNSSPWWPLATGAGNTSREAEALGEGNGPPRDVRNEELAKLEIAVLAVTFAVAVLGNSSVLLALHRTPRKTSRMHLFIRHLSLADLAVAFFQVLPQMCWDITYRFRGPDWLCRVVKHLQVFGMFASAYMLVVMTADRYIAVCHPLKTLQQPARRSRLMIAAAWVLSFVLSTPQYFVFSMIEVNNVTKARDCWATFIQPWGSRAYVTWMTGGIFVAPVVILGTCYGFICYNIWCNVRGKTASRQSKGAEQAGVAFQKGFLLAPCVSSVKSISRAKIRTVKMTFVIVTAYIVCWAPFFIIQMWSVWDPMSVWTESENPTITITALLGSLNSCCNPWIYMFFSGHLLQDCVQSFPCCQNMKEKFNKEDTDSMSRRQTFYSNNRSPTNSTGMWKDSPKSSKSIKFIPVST
Chain of 5-hydroxytryptamine receptor 2A (Homo sapiens) (P28223 whole entry): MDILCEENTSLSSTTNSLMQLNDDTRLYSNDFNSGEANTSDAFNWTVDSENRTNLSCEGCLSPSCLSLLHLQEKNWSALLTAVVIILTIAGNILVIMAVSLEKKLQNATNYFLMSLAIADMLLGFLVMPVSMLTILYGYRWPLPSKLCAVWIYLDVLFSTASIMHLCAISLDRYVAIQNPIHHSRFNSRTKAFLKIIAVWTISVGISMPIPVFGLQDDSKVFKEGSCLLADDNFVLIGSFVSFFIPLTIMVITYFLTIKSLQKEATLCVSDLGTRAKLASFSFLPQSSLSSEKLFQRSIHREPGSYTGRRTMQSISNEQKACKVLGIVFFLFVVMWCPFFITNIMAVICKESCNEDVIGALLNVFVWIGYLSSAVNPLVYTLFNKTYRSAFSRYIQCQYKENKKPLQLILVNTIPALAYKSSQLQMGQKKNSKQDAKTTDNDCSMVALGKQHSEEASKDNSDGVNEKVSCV
Chain of Motilin receptor (Homo sapiens) (O43193 whole entry): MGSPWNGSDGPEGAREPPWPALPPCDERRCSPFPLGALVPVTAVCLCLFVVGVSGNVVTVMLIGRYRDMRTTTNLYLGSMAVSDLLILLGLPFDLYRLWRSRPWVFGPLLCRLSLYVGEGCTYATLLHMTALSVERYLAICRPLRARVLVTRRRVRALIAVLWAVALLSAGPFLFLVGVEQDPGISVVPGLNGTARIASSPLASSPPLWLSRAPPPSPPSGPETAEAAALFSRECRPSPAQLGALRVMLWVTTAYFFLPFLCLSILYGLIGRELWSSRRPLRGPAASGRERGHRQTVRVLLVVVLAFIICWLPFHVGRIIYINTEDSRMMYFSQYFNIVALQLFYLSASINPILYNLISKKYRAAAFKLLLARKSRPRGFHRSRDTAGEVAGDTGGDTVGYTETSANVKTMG
Chain of Beta-2 adrenergic receptor (Homo sapiens) (P07550 whole entry, looked up): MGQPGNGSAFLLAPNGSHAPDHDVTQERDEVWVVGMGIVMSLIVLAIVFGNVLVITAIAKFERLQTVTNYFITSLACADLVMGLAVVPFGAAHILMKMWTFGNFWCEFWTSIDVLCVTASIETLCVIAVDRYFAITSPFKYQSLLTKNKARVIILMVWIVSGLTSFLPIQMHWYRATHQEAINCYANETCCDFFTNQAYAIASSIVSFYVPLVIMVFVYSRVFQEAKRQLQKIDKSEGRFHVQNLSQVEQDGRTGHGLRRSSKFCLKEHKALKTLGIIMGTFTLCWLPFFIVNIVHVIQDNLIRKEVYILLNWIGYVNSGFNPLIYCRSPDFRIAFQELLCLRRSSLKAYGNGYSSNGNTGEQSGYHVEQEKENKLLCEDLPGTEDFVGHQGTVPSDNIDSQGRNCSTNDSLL
Chain of Tumor necrosis factor (Homo sapiens) (P01375 whole entry): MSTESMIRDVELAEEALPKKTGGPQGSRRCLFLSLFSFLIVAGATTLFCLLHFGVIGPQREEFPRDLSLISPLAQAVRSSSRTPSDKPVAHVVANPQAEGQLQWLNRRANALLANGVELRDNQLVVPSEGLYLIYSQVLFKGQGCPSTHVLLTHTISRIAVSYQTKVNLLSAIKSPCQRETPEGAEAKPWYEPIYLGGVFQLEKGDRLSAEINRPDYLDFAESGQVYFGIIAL
Chain of Kappa-type opioid receptor (Homo sapiens) (P41145 whole entry): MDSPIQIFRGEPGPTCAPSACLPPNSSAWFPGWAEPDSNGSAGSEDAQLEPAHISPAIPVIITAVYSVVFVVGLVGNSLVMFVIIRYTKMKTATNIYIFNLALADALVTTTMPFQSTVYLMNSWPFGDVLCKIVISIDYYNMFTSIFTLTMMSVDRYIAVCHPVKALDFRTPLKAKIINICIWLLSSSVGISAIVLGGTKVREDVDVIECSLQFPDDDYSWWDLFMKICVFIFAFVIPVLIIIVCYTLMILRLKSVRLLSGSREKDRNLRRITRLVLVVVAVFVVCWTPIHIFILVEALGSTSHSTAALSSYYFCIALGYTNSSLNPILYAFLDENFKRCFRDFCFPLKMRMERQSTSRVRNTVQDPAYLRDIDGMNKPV
Chain of Neuropeptide Y receptor type 1 (Homo sapiens) (P25929 whole entry): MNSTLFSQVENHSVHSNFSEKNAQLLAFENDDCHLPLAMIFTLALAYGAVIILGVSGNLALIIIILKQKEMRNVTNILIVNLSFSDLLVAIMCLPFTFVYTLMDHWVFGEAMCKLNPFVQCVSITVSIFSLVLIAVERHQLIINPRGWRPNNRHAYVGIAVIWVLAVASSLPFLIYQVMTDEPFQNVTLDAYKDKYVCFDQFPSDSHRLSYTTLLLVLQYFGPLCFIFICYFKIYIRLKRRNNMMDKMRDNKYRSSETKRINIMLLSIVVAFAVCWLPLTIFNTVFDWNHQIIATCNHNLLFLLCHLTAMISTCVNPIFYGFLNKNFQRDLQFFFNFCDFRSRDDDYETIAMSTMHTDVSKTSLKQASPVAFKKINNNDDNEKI
Chain of Glucocorticoid receptor (Homo sapiens) (P04150 whole entry): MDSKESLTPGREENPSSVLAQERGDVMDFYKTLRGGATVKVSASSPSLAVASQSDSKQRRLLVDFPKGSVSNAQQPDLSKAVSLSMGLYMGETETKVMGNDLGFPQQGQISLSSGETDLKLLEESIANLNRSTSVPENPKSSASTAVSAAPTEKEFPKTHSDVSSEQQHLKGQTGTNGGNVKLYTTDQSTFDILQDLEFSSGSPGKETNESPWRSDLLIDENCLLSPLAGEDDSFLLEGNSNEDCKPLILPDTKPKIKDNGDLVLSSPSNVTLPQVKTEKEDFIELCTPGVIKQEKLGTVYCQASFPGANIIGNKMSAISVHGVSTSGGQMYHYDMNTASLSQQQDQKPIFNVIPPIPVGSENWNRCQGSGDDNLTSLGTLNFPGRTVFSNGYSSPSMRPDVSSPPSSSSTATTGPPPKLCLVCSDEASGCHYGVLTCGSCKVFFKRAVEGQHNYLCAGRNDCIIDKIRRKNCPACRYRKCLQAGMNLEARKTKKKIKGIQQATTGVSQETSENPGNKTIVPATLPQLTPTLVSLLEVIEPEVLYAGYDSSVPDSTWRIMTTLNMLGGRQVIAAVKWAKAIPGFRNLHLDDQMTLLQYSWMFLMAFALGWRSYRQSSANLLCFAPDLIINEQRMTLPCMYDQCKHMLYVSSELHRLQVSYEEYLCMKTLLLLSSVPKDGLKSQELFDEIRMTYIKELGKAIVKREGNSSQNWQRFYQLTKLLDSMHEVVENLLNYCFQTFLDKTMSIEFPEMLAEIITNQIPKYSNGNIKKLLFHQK

Structure (SMILES) | IC50 [1] | EC50 [2] | % Inhibition of Control Values (Mean n=2) [3] [%] | % Inhibition of Control Values (Mean n=2) [4] [%] | % Inhibition of Control Specific Binding (Mean n=2) [5] [%] | % Inhibition of Control Specific Binding (Mean n=2) [6] [%] | % Inhibition of Control Specific Binding (Mean n=2) [7] [%] | % Inhibition of Control Specific Binding (Mean n=2) [8] [%] | % Inhibition of Control Specific Binding (Mean n=2) [9] [%] | % Inhibition of Control Specific Binding (Mean n=2) [10] [%] | % Inhibition of Control Specific Binding (Mean n=2) [11] [%] | % Inhibition of Control Specific Binding (Mean n=2) [12] [%] | % Inhibition of Control Specific Binding (Mean n=2) [13] [%] | % Inhibition of Control Specific Binding (Mean n=2) [14] [%] | % Inhibition of Control Specific Binding (Mean n=2) [15] [%] | % Inhibition of Control Specific Binding (Mean n=2) [16] [%] | % Inhibition of Control Specific Binding (Mean n=2) [17] [%] | % Inhibition of Control Specific Binding (Mean n=2) [18] [%] | % Inhibition of Control Specific Binding (Mean n=2) [19] [%] | % Inhibition of Control Specific Binding (Mean n=2) [20] [%] | further results
O=C(Nc1nc2ccccc2s1)c1cccc2c1CN(c1nc(C(=O)O)c(CCOc3ccc(-n4ncc5cncnc54)cc3)s1)CC2 [A-1107969] | 0.27 µM (not active) | > 10 µM (not active) | 65.5 | -7.5 | 7.9 | -6.1 | -0.4 | -6.9 | 1.5 | -19.5 | 7.8 | -1.7 | 8.7 | 2.2 | 8.6 | 8.7 | 5.3 | -0.4 | 17 | 60.3 | % Inhibition of Control Specific Binding (Mean n=2) [21]: -0.6%; % Inhibition of Control Specific Binding (Mean n=2) [22]: 1.7%; % Inhibition of Control Specific Binding (Mean n=2) [23]: 11.4%; % Inhibition of Control Specific Binding (Mean n=2) [24]: 55.4%; % Inhibition of Control Specific Binding (Mean n=2) [25]: -8.2%; % Inhibition of Control Specific Binding (Mean n=2) [26]: 4.8%; % Inhibition of Control Specific Binding (Mean n=2) [27]: -12.2%; inhibition at 60 min, 10 µM [28]: 3.3%; % Inhibition of Control Specific Binding (Mean n=2) [29]: 3.6%
CN(C)CC#Cc1ccc(OCCCc2sc(N3CCc4cccc(C(=O)Nc5nc6ccccc6s5)c4C3)nc2C(=O)O)c(F)c1 [A-1155463] | 0.00055 µM (active) | 0.214 µM (active) | 62.2 | -17.3 | 60.6 | 6.7 | 1.4 | -7 | 1.1 | -2.9 | 21.6 | -6.3 | 20.1 | -21.6 | 13.8 | 3.3 | 25.6 | 12.5 | 34.4 | 33.8 | % Inhibition of Control Specific Binding (Mean n=2) [21]: 44.3%; % Inhibition of Control Specific Binding (Mean n=2) [22]: 4.7%; % Inhibition of Control Specific Binding (Mean n=2) [23]: 16.9%; % Inhibition of Control Specific Binding (Mean n=2) [24]: 37.8%; % Inhibition of Control Specific Binding (Mean n=2) [25]: -8.1%; % Inhibition of Control Specific Binding (Mean n=2) [26]: 5.3%; % Inhibition of Control Specific Binding (Mean n=2) [27]: -3.7%; inhibition at 60 min, 10 µM [28]: 32.3%; % Inhibition of Control Specific Binding (Mean n=2) [29]: 31.6%
